Measured values published in patent US9540343B2 (Gilead Sciences, Inc., priority 2011, dated 2017).

What was measured:
[1] = test system: HIV-IIIb; test: Test A: Antiviral assay in MT4 cells; type: cell-based, HIV-1; conditions: Human immunodeficiency virus 1, IIIB, MT4, 120 h, read-out: % inhibition at 2 μM, percent inhibition of virus-induced cell killing, from dose response curve at 2 uM drug; MT-4 cells infected with HIV-IIIb, 5 days, CellTiter-Glo
[2] = in vitro; conditions: human, uninfected MT-4 cells, CC50 (nM), same protocol as Test A, CellTiter-Glo
In short: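 Cytoprotection read-out: CellTiter-Glo chemiluminescence after 5 days at 37 °C of HIV-IIIb-infected MT-4 cells (m.o.i. 0.003) with compound in 10-point 3-fold dilutions, quadruplicate, 10% FBS. Cytotoxicity (CC50) measured identically without virus.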

SMILES | inhibition at 2 µM [1] [%] | CC50 at 5 days [2] [nM]
Cc1cc2ncn(CC(=O)N[C@@H](Cc3cc(F)cc(F)c3)c3ncccc3-c3cccc(C(N)=O)c3)c2cc1C [Example 278, (S)-3-(2-(2-(3,5-difluorophenyl)-1-(2-(5,6-dimethyl-1H-benzo[d]imidazol-1-yl)acetamido)ethyl)pyridin-3-yl)benzamide] | 121 | 8530
Cc1cc2ncn(CC(=O)N[C@H](Cc3cc(F)cc(F)c3)c3ncncc3-c3ccc(Cl)cc3)c2cc1C [Example 279G, (R)—N-(1-(5-(4-chlorophenyl)pyrimidin-4-yl)-2-(3,5-difluorophenyl)ethyl)-2-(5,6-dimethyl-1H-benzo[d]imidazol-1-yl)acetamide] | 82 | 9300
CCc1c(C#CC(C)(C)C)c(C(F)(F)F)nn1CC(=O)N[C@@H](Cc1cc(F)cc(F)c1)c1ncccc1-c1ccc(F)c(C(N)=O)c1 [Example 280, (S)-5-(2-(2-(3,5-difluorophenyl)-1-(2-(4-(3,3-dimethylbut-1-ynyl)-5-ethyl-3-(trifluoromethyl)-1H-pyrazol-1-yl)acetamido)ethyl)pyridin-3-yl)-2-fluorobenzamide] | 0 | 4180
NC(=O)c1cc(-c2cccnc2[C@H](Cc2cc(F)cc(F)c2)NC(=O)Cn2nc(C(F)(F)F)c3c2C(=O)CC3)ccc1F [Example 281C, (S)-5-(2-(2-(3,5-difluorophenyl)-1-(2-(6-oxo-3-(trifluoromethyl)-5,6-dihydrocyclopenta[c]pyrazol-1(4H)-yl)acetamido)ethyl)pyridin-3-yl)-2-fluorobenzamide] | 5 | 28300
NC(=O)c1cc(-c2cccnc2[C@H](Cc2cc(F)cc(F)c2)NC(=O)COc2cc[nH]c(=O)c2)ccc1F [Example 282, (S)-5-(2-(2-(3,5-difluorophenyl)-1-(2-(2-oxo-1,2-dihydropyridin-4-yloxy)acetamido)ethyl)pyridin-3-yl)-2-fluorobenzamide] | 0 | > 53200
NC(=O)c1cc(-c2cccnc2[C@H](Cc2cc(F)cc(F)c2)NC(=O)Cn2nc(C(F)(F)F)c3c2C(F)(F)CC3)ccc1F [Example 283C, (S)-5-(2-(1-(2-(6,6-difluoro-3-(trifluoromethyl)-5,6-dihydrocyclopenta[c]pyrazol-1(4H)-yl)acetamido)-2-(3,5-difluorophenyl)ethyl)pyridin-3-yl)-2-fluorobenzamide] | 65 | 24400
NC(=O)c1cc(-c2cccnc2[C@H](Cc2cc(F)cc(F)c2)NC(=O)Cn2nc(C(F)F)c3c2C(F)(F)CCC3=O)ccc1F [Example 285G, (S)-5-(2-(1-(2-(3-(difluoromethyl)-7,7-difluoro-4-oxo-4,5,6,7-tetrahydro-1H-indazol-1-yl)acetamido)-2-(3,5-difluorophenyl)ethyl)pyridin-3-yl)-2-fluorobenzamide] | 58 | 48500
O=C(Cn1cnc2c1CCCC2)N[C@@H](Cc1cc(F)cc(F)c1)c1ncccc1Br [Example 286, (S)—N-(1-(3-bromopyridin-2-yl)-2-(3,5-difluorophenyl)ethyl)-2-(4,5,6,7-tetrahydro-1H-benzo[d]imidazol-1-yl)acetamide] | 0 | 25200
CNc1ccc(-c2cccnc2[C@H](Cc2cc(F)cc(F)c2)NC(=O)Cn2nc(C(F)F)c3c2C(F)(F)CCC3(F)F)cn1 [Example 287E, (S)-2-(3-(difluoromethyl)-4,4,7,7-tetrafluoro-4,5,6,7-tetrahydro-1H-indazol-1-yl)-N-(2-(3,5-difluorophenyl)-1-(6′-(methylamino)-3,3′-bipyridin-2-yl)ethyl)acetamide] | 98 | 16000
O=C(Cn1nc(C(F)F)c2c1C(F)(F)CCC2(F)F)N[C@@H](Cc1cc(F)cc(F)c1)c1ncncc1-c1cnc2[nH]ccc2c1 [Example 288, (S)—N-(1-(5-(1H-pyrrolo[2,3-b]pyridin-5-yl)pyrimidin-4-yl)-2-(3,5-difluorophenyl)ethyl)-2-(3-(difluoromethyl)-4,4,7,7-tetrafluoro-4,5,6,7-tetrahydro-1H-indazol-1-yl)acetamide] | 108 | 16400
CCOC(=O)c1cn(CC(=O)N[C@@H](Cc2cc(F)cc(F)c2)c2ncccc2-c2ccc(F)c(C(N)=O)c2)nc1C(F)(F)F [Example 289, (S)-ethyl 1-(2-(1-(3-(3-carbamoyl-4-fluorophenyl)pyridin-2-yl)-2-(3,5-difluorophenyl)ethylamino)-2-oxoethyl)-3-(trifluoromethyl)-1H-pyrazole-4-carboxylate] | 2 | 26400
CCc1c(-c2ccccc2)c(C(F)(F)F)nn1CC(=O)N[C@@H](Cc1cc(F)cc(F)c1)c1ncccc1-c1ccc(F)c(C(N)=O)c1 [Example 290, (S)-5-(2-(2-(3,5-difluorophenyl)-1-(2-(5-ethyl-4-phenyl-3-(trifluoromethyl)-1H-pyrazol-1-yl)acetamido)ethyl)pyridin-3-yl)-2-fluorobenzamide] | 4 | 11500
Cc1c(C2CC2)c(C(F)(F)F)nn1CC(=O)N[C@@H](Cc1cc(F)cc(F)c1)c1ncccc1-c1ccc(F)c(C(N)=O)c1 [Example 291, (S)-5-(2-(1-(2-(4-cyclopropyl-5-methyl-3-(trifluoromethyl)-1H-pyrazol-1-yl)acetamido)-2-(3,5-difluorophenyl)ethyl)pyridin-3-yl)-2-fluorobenzamide] | 86 | 16500
NC(=O)c1cc(-c2cccnc2[C@H](Cc2cc(F)cc(F)c2)NC(=O)Cn2cc(CO)c(C(F)(F)F)n2)ccc1F [Example 292, (S)-5-(2-(2-(3,5-difluorophenyl)-1-(2-(4-(hydroxymethyl)-3-(trifluoromethyl)-1H-pyrazol-1-yl)acetamido)ethyl)pyridin-3-yl)-2-fluorobenzamide] | 1 | > 53200
O=C(Cc1c[nH]c2ccc(F)cc12)N[C@H](Cc1cc(F)cc(F)c1)c1ncncc1-c1ccc(Cl)cc1 [Example 293, (R)—N-(1-(5-(4-chlorophenyl)pyrimidin-4-yl)-2-(3,5-difluorophenyl)ethyl)-2-(5-fluoro-1H-indol-3-yl)acetamide] | 44 | 11200
NC(=O)c1cc(-c2cccnc2[C@H](Cc2cc(F)cc(F)c2)NC(=O)Cc2c[nH]c3ccc(F)cc23)ccn1 [Example 294, (S)-2-(2-(3,5-difluorophenyl)-1-(2-(5-fluoro-1H-indol-3-yl)acetamido)ethyl)-3,4′-bipyridine-2′-carboxamide] | 114 | 20500
NS(=O)(=O)c1cccc(-c2cncnc2[C@H](Cc2cc(F)cc(F)c2)NC(=O)Cc2c[nH]c3ccc(O)cc23)c1 [Example 295B, (S)—N-(2-(3,5-difluorophenyl)-1-(5-(3-sulfamoylphenyl)pyrimidin-4-yl)ethyl)-2-(5-hydroxy-1H-indol-3-yl)acetamide] | 99 | > 53200
NC(=O)c1cc(-c2cccnc2[C@H](Cc2cc(F)cc(F)c2)NC(=O)Cn2cc(C=O)c(C(F)(F)F)n2)ccc1F [Example 296, (S)-5-(2-(2-(3,5-difluorophenyl)-1-(2-(4-formyl-3-(trifluoromethyl)-1H-pyrazol-1-yl)acetamido)ethyl)pyridin-3-yl)-2-fluorobenzamide] | 96 | 10800
